Assay results taken from patent US12268798B2, “Method for screening of unpleasant odor masking agents” (Takasago International Corporation, priority 2020, dated 2025).

Key:
olfactory receptor OR2L3 [1] = target: T1, olfactory receptor OR2L3 (Homo sapiens, UniProt Q8NG85); assay: Luciferase reporter gene assay: effect of suppressing the response of OR2L3 to unpleasant odor-causing substance; assay type: cell-based; conditions: for Effect of suppressing the response of OR2L3 to indole: test substance mixed with indole, FIGS. 10 to 12; for Effect of suppressing the response of OR2L3 to skatole: test substance mixed with skatole, ratio of Fold Increase value, FIGS. 6 to 9
T1 construct: N-terminal 20 amino acid residues of bovine rhodopsin (Rho tag); expressed in transfected cells; host or cells: HEK293T cells, transient lipofection with the pME18S expression vector, an RTP1S vector and the luciferase reporter vectors
T1 sequence (Q8NG85 1-312): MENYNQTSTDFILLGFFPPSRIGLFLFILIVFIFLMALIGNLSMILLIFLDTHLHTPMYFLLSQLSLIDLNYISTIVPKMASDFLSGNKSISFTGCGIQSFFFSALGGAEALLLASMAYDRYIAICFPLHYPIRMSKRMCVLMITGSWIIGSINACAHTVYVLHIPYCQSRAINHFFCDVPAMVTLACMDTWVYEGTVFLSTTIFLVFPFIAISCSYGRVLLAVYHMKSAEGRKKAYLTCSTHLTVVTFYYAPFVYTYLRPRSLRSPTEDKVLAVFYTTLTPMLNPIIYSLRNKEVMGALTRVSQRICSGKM
Method: (§1) 0.05 μg of the human olfactory receptor gene expression vector, 0.01 μg of an RTP1S vector, 0.01 μg of a firefly luciferase vector pGL4.29 containing a cAMP-responsive sequence promoter (Promega), and 0.005 μg of a Renilla luciferase vector pGL4.74 containing a thymidine kinase promoter (Promega) were dissolved in 10 μL of Opti-MEM I (gibco) to obtain a gene solution (for one well). 100 μL of HEK293T cells were seeded in each well of a 96-well plate (Biocoat manufactured by Corning) so as to reach confluency after 24 hours. According to the directions for use of Lipofectamine 3000, by the lipofection method, the gene solution was added to each well to perform gene transfer to cells, and culturing was performed under 5% carbon dioxide atmosphere at 37° C. for 24 hours.
After removing the culture medium, 50 μL of CD293 medium (gibco) (20 μM L-glutamine added) including measured concentration of an aroma compound as a sample was added to each well, and stimulation was performed for 3 hours. After that, the luciferase activity was measured according to the directions for use of Dual-Luciferase Reporter Assay System (Promega). The response strength of the olfactory receptor was expressed by the Fold Increase value, which is obtained by dividing the luciferase activity generated by stimulation of the aroma compound by the luciferase activity generated in the test system not including the aroma compound. […]
With respect to unpleasant odor masking agents (group of candidate substances) including Group A shown in Table 1, the effects of suppressing the response of OR2L3 that strongly responded to unpleasant odors were measured by means of luciferase reporter gene assay.
In luciferase reporter gene assay, skatole and Guava coeur (Ethyl 3-mercapto-2-methylbutyrate) were used by being mixed with a sample. The Fold Increase value in the test in which Guava coeur was not mixed was regarded as 1, and the ratio of the Fold Increase value in the test in which Guava coeur was mixed was obtained.
Guava coeur in the evaluation of the effect of suppressing the response of OR2L3 was replaced by Dextramber® (1-(2,2,6-trimethylcyclohexyl) hexan-3-ol, registered trademark), and the test was conducted in the same manner. […] Similarly, Guava coeur was replaced by Hindinol® (2-methyl-4-(2,2,3-trimethyl-3-cyclopentenyl)-2-buten-1-ol, registered trademark) and the test was conducted.
Regarding the unpleasant odor in the evaluation of the effect of suppressing the response of OR2L3, skatole was replaced by indole, and the test was conducted in the same manner. […]

skatole odor = assay: Sensory evaluation of unpleasant odor suppression ability (skatole), panel of 20 persons; assay type: in vivo, human; conditions: for Skatole strength: average rating of 20 persons, scale 0 to 10, unpleasant odor alone rated 8, 10 μL skatole diluted 100-fold plus 1 μL test substance, 1 hour at room temperature; for Effect of suppressing the unpleasant odors (in words): unpleasant odors = skatole or indole
Method: (§2) The unpleasant odor suppression ability of test substances having activity to inhibit receptor action was confirmed by sensory evaluation. A cotton ball on which 10 μL of skatole or indole diluted 100-fold with triethyl citrate as an unpleasant odor and 1 μL of a test substance were dropped was put into a plastic bottle (OZO-40 manufactured by Takemoto Yohki Co., Ltd.). The bottle was allowed to stand at room temperature for 1 hour to sufficiently volatilize odor molecules therein. The sensory evaluation test was conducted by a panel consisting of 20 persons, who made evaluation as follows: the odor strength in the case where the unpleasant odor was dropped solely was rated as 8, and the unpleasant odor strength in the case where the test substance was mixed was rated as from 0 (the unpleasant odor is not smelled) to 10 (the unpleasant odor is smelled very strongly). The average value was calculated from obtained numerical values.

indole odor = assay: Sensory evaluation of unpleasant odor suppression ability (indole), panel of 20 persons; assay type: in vivo, human; conditions: for Indole strength: average rating of 20 persons, scale 0 to 10, unpleasant odor alone rated 8, 10 μL indole diluted 100-fold plus 1 μL test substance, 1 hour at room temperature
Method: as §2

olfactory receptor OR2L3 [2] = target: T1, olfactory receptor OR2L3; assay: Luciferase reporter gene assay: response of olfactory receptor OR2L3 to unpleasant odor-causing substance; assay type: cell-based; conditions: various concentrations; HEK293T cells expressing OR2L3; FIGS. 1 to 5
Method: A human olfactory receptor gene was obtained by cloning according to the PCR method using Human Genomic DNA: Female (Promega) based on the sequence information registered in GenBank. The N-terminal 20 amino acid residues of bovine rhodopsin were incorporated into a pME18S vector, and the obtained human olfactory receptor gene was further incorporated downstream thereof, thereby obtaining a human olfactory receptor gene expression vector.
as §1
(§3) After removing the culture medium, 50 μL of CD293 medium (gibco) (20 μM L-glutamine added) including measured concentration of an aroma compound as a sample was added to each well, and stimulation was performed for 3 hours. After that, the luciferase activity was measured according to the directions for use of Dual-Luciferase Reporter Assay System (Promega). The response strength of the olfactory receptor was expressed by the Fold Increase value, which is obtained by dividing the luciferase activity generated by stimulation of the aroma compound by the luciferase activity generated in the test system not including the aroma compound.
(§4) Responses of the olfactory receptor OR2L3 to skatole, indole, α-terpineol, 4-terpineol or p-methylacetophenone as a typical example of the unpleasant odor-causing substance were measured with various concentrations by means of luciferase reporter gene assay. […] Meanwhile, in the Mock test (using cells in which OR2L3 was not expressed), no response was shown. That is, it was shown that OR2L3 specifically responds to the respective unpleasant odor-causing substances.

[3] = test system: HEK293T cells in which OR2L3 was not expressed (Mock); assay: Mock test, luciferase reporter gene assay using cells in which OR2L3 was not expressed; assay type: cell-based, human
Method: as §1, §3, §4

Compound	Effect of suppressing the response of OR2L3 to skatole (olfactory receptor OR2L3 [1])	Response of the olfactory receptor OR2L3 (Fold Increase) (olfactory receptor OR2L3 [2])	Skatole strength (skatole odor)	Effect of suppressing the unpleasant odors (in words) (skatole odor; sensory evaluation)	Indole strength (indole odor)	Response in the Mock test [3]	further results
CCCC(O)CCC1C(C)CCCC1(C)C (stereo not shown) [1-(2,2,6-trimethylcyclohexyl)hexan-3-ol]	concentration-dependently reducing		4.0	suppress	3.9		Effect of suppressing the response of OR2L3 to indole (olfactory receptor OR2L3 [1]): concentration-dependently reducing
CC(=CCC1CC=C(C)C1(C)C)CO (stereo not shown) [2-methyl-4-(2,2,3-trimethyl-3-cyclopentenyl)-2-buten-1-ol]	concentration-dependently reducing		3.6	suppress	4.1		Effect of suppressing the response of OR2L3 to indole (olfactory receptor OR2L3 [1]): concentration-dependently reducing
CC(C)(C)C1CCC(O)CC1 (stereo not shown) [4-t-butyleyclohexanol, 4-t-butylcyclohexanol, reference compound]	did not suppress		6.3		6.0		
CC1=CCC(O)(C(C)C)CC1 (stereo not shown) [4-terpineol]		concentration-dependent responses				no response	
O=C1CCCC=CCCCCCCCCCC1 [5-cyclohexadecenone]			4.2	suppress	3.6		
CC(c1ccccc1)C1CC1C(C)(C)O (stereo not shown) [Dimethyl-2-(1-phenylethyl)cyclopropylmethanol]			2.5	suppress	2.4		
CCOC(=O)C(C)C(C)S (stereo not shown) [Ethyl 3-mercapto-2-methylbutyrate]	concentration-dependently reducing		3.0	suppress	3.3		Effect of suppressing the response of OR2L3 to indole (olfactory receptor OR2L3 [1]): concentration-dependently reducing
c1ccc2[nH]ccc2c1 [indole]		concentration-dependent responses				no response	
CC1CCC(C(C)(C)S)C(=O)C1 (stereo not shown) [p-mentha-8-thio1-3-one, p-mentha-8-thiol-3-one]			3.9	suppress	3.7		

Further lines, with some results ahead:

Effect of suppressing the response of OR2L3 to skatole (olfactory receptor OR2L3 [1])	Response of the olfactory receptor OR2L3 (Fold Increase) (olfactory receptor OR2L3 [2])	Compound	Skatole strength (skatole odor)	Effect of suppressing the unpleasant odors (in words) (skatole odor; sensory evaluation)	Indole strength (indole odor)	Response in the Mock test [3]	further results
did not suppress		CCCCCCOC(=O)c1ccccc1O [Hexyl salicylate, hexyl salicylate, reference compound]	6.9		6.7		
concentration-dependently reducing		CC/C=C\CCOC(=O)CCCCC [cis-3-hexenyl hexanoate, reference compound]					
	concentration-dependent responses	CC(=O)c1ccc(C)cc1 [p-methylacetophenone]				no response	
	concentration-dependent responses	Cc1c[nH]c2ccccc12 [skatole]				no response	
	concentration-dependent responses	CC1=CCC(C(C)(C)O)CC1 (stereo not drawn) [α-terpineol]				no response	
suppresses		Methyl fenchol	3.3		3.1		Suppression of the strength of skatole odor (in words) (skatole odor; sensory evaluation): significantly suppressed; Suppression of the strength of indole odor (in words) (indole odor; sensory evaluation): suppressed
